{"source": "paper PMC6971011", "about": "“Conformational changes in Apolipoprotein N-acyltransferase (Lnt)” (Scientific Reports, 2020)", "target": "T1, Apolipoprotein N-acyltransferase (Lnt); Lnt-C1, Lnt-C2 (Escherichia coli, UniProt P23930)", "T1 construct": "full length; C1: fifteen-residue C-terminal tail with His8-tag kept; C2: N-terminal His6-tag TEV-cleaved, two extra N-terminal residues; expressed in E. coli C41, detergent-purified", "assay": "X-ray crystallography ([…] Å) and LC-MS/MS of tryptic peptide", "format": "binding", "conditions": "covalent; thioester on active site C387 (acyl-enzyme intermediate, co-purified from expression host); Lnt-C1 chain B; vapor diffusion, pH 6.4", "data": [{"compound": "CCCCCCCCCCCCCCCC(=O)O", "note": "[palmitate]", "values": [{"measurement": "X-ray crystallography (3.5 Å) and LC-MS/MS of tryptic peptide", "value": "mass spectrometry analysis (Fig. 3D) on purified Lnt that identified a palmitoyl modification at position C387"}]}]}
